Measured values from patent US20120142685A1, “ORGANIC COMPOUNDS” (priority 2007, published 2012).
Read-outs that look alike come from different tables or passages of the source.

Tests used:
HDAC5 nuclear export = HDAC5 nuclear export assay in neonatal rat ventricular myocytes (GFP-HDAC5, PGF2α stimulated); assay type: cell-based; conditions: Ventricular myocyte, 2 h
Protocol: Compounds are evaluated in the HDAC5 nuclear […] assay, a 384-well plate-based assay that enables high throughput screening (HTS) to identify small molecules that block agonist-dependent nuclear export of HDAC5. This assay employs the Cellomics High Content Imaging platform (Giuliano & Taylor 1998) and adenovirus encoding green fluorescent protein (GFP) tagged HDAC5. Neonatal rat ventricular myocytes (NRVMs) are infected with GFP-HDAC5 encoding virus and plated on gelatin-coated 384-well dishes. Cells are exposed to compound and stimulated with an prostaglandin (PGF2α), which is a potent stimulus for HDAC5 nuclear export. Following two hours of stimulation, cells are fixed and GFP-HDAC5 localization quantified using the Cellomics system, which provides a read-out of relative fluorescence intensity in the cytoplasmic versus nuclear compartment.

protein kinase D2 (PKD2) = molecular target: T1, protein kinase D2 (PKD2) (Homo sapiens, UniProt Q9BZL6); assay: PKD2 TR-FRET (LANCE) kinase assay; assay type: biochemical
T1 construct: This assay is performed with full length wild-type enzyme purchase from Invitrogen; purchased Invitrogen
T1 sequence (Q9BZL6 1-878): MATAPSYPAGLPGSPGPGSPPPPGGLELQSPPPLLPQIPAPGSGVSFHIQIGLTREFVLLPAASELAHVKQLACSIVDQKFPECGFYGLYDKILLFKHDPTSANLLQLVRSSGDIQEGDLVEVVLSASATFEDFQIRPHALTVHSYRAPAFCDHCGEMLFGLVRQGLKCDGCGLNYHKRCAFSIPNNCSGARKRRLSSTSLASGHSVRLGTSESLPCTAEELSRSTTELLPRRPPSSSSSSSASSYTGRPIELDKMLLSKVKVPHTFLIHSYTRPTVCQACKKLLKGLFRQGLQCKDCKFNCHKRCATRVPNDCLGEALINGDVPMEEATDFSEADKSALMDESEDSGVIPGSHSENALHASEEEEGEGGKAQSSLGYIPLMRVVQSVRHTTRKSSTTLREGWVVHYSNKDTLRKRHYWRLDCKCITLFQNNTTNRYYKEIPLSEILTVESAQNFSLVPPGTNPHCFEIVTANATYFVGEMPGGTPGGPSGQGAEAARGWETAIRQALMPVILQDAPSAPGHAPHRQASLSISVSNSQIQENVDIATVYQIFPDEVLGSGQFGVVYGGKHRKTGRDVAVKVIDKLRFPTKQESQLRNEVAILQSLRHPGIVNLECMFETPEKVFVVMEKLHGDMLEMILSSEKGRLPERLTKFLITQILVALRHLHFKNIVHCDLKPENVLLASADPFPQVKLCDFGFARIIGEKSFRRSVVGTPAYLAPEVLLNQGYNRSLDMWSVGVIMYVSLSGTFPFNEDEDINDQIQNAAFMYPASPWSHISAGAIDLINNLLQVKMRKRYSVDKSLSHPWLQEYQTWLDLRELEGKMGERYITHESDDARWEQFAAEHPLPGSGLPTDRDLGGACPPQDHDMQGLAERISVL
Excerpt: The assay to measure protein kinase D2 (PKD2) activity is a time-resolved fluorescence resonance transfer (TR-FRET) assay using PerkinElmer's LANCE™ technology. In this case, a biotinylated syntide-2 peptide is used as the substrate in this reaction. Phosphorylation of the syntide-2 substrate is detected by a specific antibody that recognizes the phosphorylated peptide. A second fluorophore, APC, is conjugated to streptavidin that binds the biotinylated syntide-2 peptide. […] Therefore, when the europium labeled secondary antibody binds on the phosphorylated peptide, it is brought into close contact with the APC and excites this fluorophore.
This assay is performed with full length wild-type enzyme purchase from Invitrogen. The reaction buffer consists of 35 mM Tris-HCl pH7.5, 5 mM MgCl2, 0.02% Tween-20, 20 μM ATP, 1 mM DTT and 0.2 μg/mL PKD2 enzyme. The enzyme reaction is initiated by the addition of 2 μM syntide-2 peptide substrate and the reaction carried out for 50 minutes at room temperature. The reaction is stopped by a stop/detection buffer consisting of 50 mM EDTA, 0.18 mg/mL rabbit polyclonal anti-phospho syntide-2 antibody, 0.5 nM europium labeled anti-rabbit IgG and 10 nM streptavidin conjugated APC. After a one hour incubation with the stop/detection buffer, the reaction is read on an Envision 2100 Reader using a LANCE™ Eu/APC dual protocol. […] IC50 values are calculated using an Activity Base (IDBS) software program.

[1] = NRVMs, GFP-HDAC5, PGF2α stimulation two hours, read-out: Inhibitory Activity HDAC
[2] = full length wild-type enzyme, 20 μM ATP, read-out: Inhibitory Activity PKD2
[3] = read-out: Inhibitory Activity HDAC (nM)

Structure (SMILES)	IC50 (HDAC5 nuclear export; [1]) [nM]	IC50 (protein kinase D2 (PKD2); [2]) [nM]	IC50 (protein kinase D2 (PKD2)) [nM]	IC50 (HDAC5 nuclear export; [3]) [nM]
Cn1ccc(Nc2cc(-c3cc4cnccc4c(N4CCC(C(N)=O)CC4)n3)ccn2)n1 [Example 19, 1-{3-[2-(1-Methyl-1H-pyrazol-3-ylamino)pyridin-4-yl]-[2,6]naphthyridin-1-yl}piperidine-4-carboxylic acid amide]	12	2		
NC(=O)C1CCN(c2nc(-c3ccnc(NC4CCCCC4)c3)cc3cnccc23)CC1 [Example 10, 1-[3-(2-Cyclohexylaminopyridin-4-yl)-[2,6]naphthyridin-1-yl]piperidine-4-carboxylic acid amide]	203		414	
CN(C)CCNc1nc(-c2ccnc(NC3CCCCC3)c2)cc2cnccc12 [Example 8, N-[3-(2-Cyclohexylaminopyridin-4-yl)-[2,6]naphthyridin-1-yl]-N′,N′-dimethylethane-1,2-diamine]		259		
OCCNc1nc(-c2ccnc(NC3CCCCC3)c2)cc2cnccc12 [Example 5, 2-[3-(2-Cyclohexylaminopyridin-4-yl)-[2,6]naphthyridin-1-ylamino]ethanol]		1370		
CC(=O)N1CCN(c2nc(-c3ccnc(NC4CCCCC4)c3)cc3cnccc23)CC1 [Example 11, 1-{4-[3-(2-Cyclohexylaminopyridin-4-yl)-[2,6]naphthyridin-1-yl]piperazin-1-yl}ethanone]		137		
COc1cccc(Nc2cc(-c3cc4cnccc4c(NCCO)n3)ccn2)c1 [Example 7]	86	195		
CN(C)CCNc1nc(-c2ccnc(Nc3ccccc3)c2)cc2cnccc12 [Example 9, N,N-Dimethyl-N′-[3-(2-phenylaminopyridin-4-yl)-[2,6]naphthyridin-1-yl]-ethane-1,2-diamine]	756	169		
CNc1cc(-c2cc3cnccc3c(NC)n2)ccn1 [Example 2, 1-Methylamino-3-(2-methylaminopyridin-4-yl)-[2,6]-naphthyridine]			753	
c1cc2c(NC3CCNC3)nc(-c3ccnc(NC4CCCCC4)c3)cc2cn1 (centres unmarked) [Example 14, [3-(2-Cyclohexylaminopyridin-4-yl)-[2,6]naphthyridin-1-yl]pyrrolidin-3-ylamine]	36	6		
O=C(NC1CC1)C1CCN(c2nc(-c3ccnc(NC4CCOCC4)c3)cc3cnccc23)CC1 [Example 17, 1-{3-[2-(Tetrahydropyran-4-ylamino)pyridin-4-yl]-[2,6]naphthyridin-1-yl}piperidine-4-carboxylic acid cyclopropylamide]		14		88
COCCNc1cc(-c2cc3cnccc3c(N3CCNCC3)n2)ccn1 [Example 21, (2-Methoxyethyl)-[4-(1-piperazin-1-yl-[2,6]naphthyridin-3-yl)-pyridin-2-yl]amine]	371	120		
Cn1ccc(Nc2cc(-c3cc4cnccc4c(N4CCC5(CCNC5=O)CC4)n3)ccn2)n1 [Example 20, 8-{3-[2-(1-Methyl-1H-pyrazol-3-ylamino)pyridin-4-yl]-[2,6]naphthyridin-1-yl}-2,8-diaza-spiro[4.5]decan-1-one]	361	59		
c1cc2c(N3CCNCC3)nc(-c3ccnc(NC4CCCCC4)c3)cc2cn1 [Example 3, Cyclohexyl-[4-(1-piperazin-1-yl-[2,6]naphthyridin-3-yl)pyridin-2-yl]amine]	32	0.3		
CN1CCN(c2nc(-c3ccnc(NC4CCCCC4)c3)cc3cnccc23)CC1 [Example 13, Cyclohexyl-{4-[1-(4-methylpiperazin-1-yl)-[2,6]naphthyridin-3-yl]pyridin-2-yl}amine]			14	206
CNc1cc(-c2cc3cnccc3c(NCCCO)n2)ccn1 [Example 1]		903		
CCNC(=O)N1CCN(c2nc(-c3ccnc(Nc4ccn(C)n4)c3)cc3cnccc23)CC1 [Example 18, 4-{3-[2-(1-Methyl-1H-pyrazol-3-ylamino)pyridin-4-yl]-[2,6]naphthyridin-1-yl}piperazine-1-carboxylic acid ethylamide]		127		534
O=C(NCCO)C1CCN(c2nc(-c3ccnc(NC4CCOCC4)c3)cc3cnccc23)CC1 [Example 16, 1-{3-[2-(Tetrahydropyran-4-ylamino)pyridin-4-yl]-[2,6]naphthyridin-1-yl}piperidine-4-carboxylic acid (2-hydroxyethyl)amide]	60		11	
CN(C)CC1CCN(c2nc(-c3ccnc(NC4CCCCC4)c3)cc3cnccc23)CC1 [Example 12, Cyclohexyl-{4-[1-(4-dimethylaminomethylpiperidin-1-yl)-[2,6]naphthyridin-3-yl]pyridin-2-yl}amine]		63		
CC(C)Nc1cc(-c2cc3cnccc3c(NCCO)n2)ccn1 [Example 6, 2-[3-(2-Isopropylaminopyridin-4-yl)-[2,6]naphthyridin-1-ylamino]ethanol]		497		
c1ccc(Nc2cc(-c3cc4cnccc4c(N4CCNCC4)n3)ccn2)cc1 [Example 4, Phenyl-[4-(1-piperazin-1-yl-[2,6]naphthyridin-3-yl)pyridin-2-yl]amine]		40		2
c1cc2c(NC3CCCNC3)nc(-c3ccnc(NC4CCCCC4)c3)cc2cn1 (centres unmarked) [Example 15, [3-(2-Cyclohexylaminopyridin-4-yl)-[2,6]naphthyridin-1-yl]piperidin-3-ylamine]		102		605
